The source of these data is ChEMBL document CHEMBL3407333, “Synthesis and biological evaluation of second-generation tropanol-based androgen receptor modulators” (J Med Chem, 2015).

The target of assay [1] is T1, Androgen receptor (Homo sapiens, UniProt P10275).
T1 sequence (P10275 whole entry): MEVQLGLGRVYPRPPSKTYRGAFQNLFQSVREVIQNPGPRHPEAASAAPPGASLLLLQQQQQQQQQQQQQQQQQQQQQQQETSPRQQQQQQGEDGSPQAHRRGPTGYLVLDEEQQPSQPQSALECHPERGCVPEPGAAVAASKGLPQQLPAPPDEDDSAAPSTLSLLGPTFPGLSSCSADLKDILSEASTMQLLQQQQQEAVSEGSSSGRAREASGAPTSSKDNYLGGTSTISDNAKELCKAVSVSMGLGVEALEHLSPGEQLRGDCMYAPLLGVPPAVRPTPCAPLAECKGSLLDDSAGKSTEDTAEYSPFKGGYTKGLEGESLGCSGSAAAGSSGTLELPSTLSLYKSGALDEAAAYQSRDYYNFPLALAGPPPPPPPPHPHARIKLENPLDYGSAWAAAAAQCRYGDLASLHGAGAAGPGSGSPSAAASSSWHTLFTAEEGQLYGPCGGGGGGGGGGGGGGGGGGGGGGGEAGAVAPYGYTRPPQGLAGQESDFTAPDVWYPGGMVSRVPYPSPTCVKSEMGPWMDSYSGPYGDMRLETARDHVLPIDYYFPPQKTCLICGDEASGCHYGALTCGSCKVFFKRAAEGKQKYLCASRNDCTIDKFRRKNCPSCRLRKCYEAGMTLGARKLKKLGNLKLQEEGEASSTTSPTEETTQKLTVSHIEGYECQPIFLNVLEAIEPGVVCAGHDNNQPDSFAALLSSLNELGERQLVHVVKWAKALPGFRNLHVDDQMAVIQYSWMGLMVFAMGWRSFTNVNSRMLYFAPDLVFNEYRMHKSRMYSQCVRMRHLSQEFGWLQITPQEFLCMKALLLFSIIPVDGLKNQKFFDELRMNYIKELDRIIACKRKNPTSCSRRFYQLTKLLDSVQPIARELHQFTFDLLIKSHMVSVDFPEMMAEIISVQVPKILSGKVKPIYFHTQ
Kind of assay: Antagonist activity against pSG5-tagged human androgen receptor expressed in COS1 cells assessed as reduction in receptor-mediated transcriptional activity by AR-regulated rat probasin promoter fragment driven firefly luciferase reporter assay. In kind it is cell-based, COS-1.

Assay [2] addresses T1, Androgen receptor. In words: Displacement of [3H]R1881 from pSG5-tagged human androgen receptor expressed in COS1 cells assessed as relative binding inhibition. The class given is cell-based, COS-1.

Take `CC1(O)C[C@@H]2CC[C@@H](C1)N2c1ccc(C#N)c(C(F)(F)F)c1` (relative stereo): the IC50 in assay [1] and in assay [2] was 29.3 nM throughout.

On to `N#Cc1ccc(N2[C@H]3CC[C@H]2CC(O)C3)cc1C(F)(F)F` (relative stereo), for which the IC50 in assay [1] and in assay [2] was 39.8 nM each time.

Regarding `Cc1c(N2C3CCC2CC(C)(O)C3)ccc(C#N)c1Cl` (stereo unspecified), the IC50 in assay [1] and in assay [2] was 2.11 nM throughout.

With `CS(=O)(=O)NC1C[C@@H]2CC[C@@H](C1)N2c1ccc(C#N)c(C(F)(F)F)c1` (relative stereo), the IC50 in assay [1] and in assay [2] was 2650 nM each time.

For the molecule `N#Cc1ccc(N2[C@@H]3CC[C@H]2C[C@@H](O)C3)cc1Cl`, the IC50 in assay [1] and in assay [2] was 31.7 nM each time.

Consider `N#Cc1ccc(N2C3CCC2CC(=O)C3)cc1C(F)(F)F`, for which the IC50 in assay [1] and in assay [2] was 66 nM each time.

As for `N#Cc1ccc(N2[C@H]3CC[C@H]2CC(NCc2ccccc2)C3)cc1C(F)(F)F` (relative stereo), the IC50 in assay [1] and in assay [2] was 233 nM each time.

For the molecule `CCS(=O)(=O)NC1C[C@@H]2CC[C@@H](C1)N2c1ccc(C#N)c(C(F)(F)F)c1` (relative stereo), the IC50 in assay [1] and in assay [2] was 2040 nM throughout.
